Experimental data: publication PMC10877774, “Development of an UPLC-MS/MS method for quantitative analysis of abexinostat levels in rat plasma and application of pharmacokinetics” (BMC Chemistry, 2024)

What was measured:
[1] = Stability of abexinostat in rat plasma under different storage and handling conditions; type: in vitro ADME; settings: for stability (in words) / stability of plasma samples (in words): RE within ± 15% considered stable; for Stability RE (%): n = 5
Protocol: For the preparation of control and standard curves, we dissolved abexinostat and IS in methanol at a concentration of 1.00 mg/mL. Both the abexinostat working solution and the 100 ng/mL IS working solution were diluted with methanol from their respective stock solutions. The corresponding working solution (10 μL) was diluted tenfold and operated by adding rat blank plasma (90 μL) to obtain a calibration curve with a concentration range of 2.00–100 ng/mL. The concentrations at each point in the standard curve were set to 2.00, 5.00, 10, 20, 50, 100 ng/mL, respectively. Final concentrations of QC samples were 2.00 (lower limit of quantitation, LLOQ), 5.00 (low quality control, LQC), 40 (median quality control, MQC), and 80 (high quality control, HQC) ng/mL.
The principles of the analytical methods in this study were performed in accordance with the FDA’s “Guidance for Industry: Bioanalytical Method Validation” [14], including calibration curves, selectivity, LLOQ, recovery, matrix effects, precision and accuracy, and stability.
Stability experiments to test abexinostat in plasma under different storage and handling conditions were done to investigate whether abexinostat was still stable in rat plasma. The stability test results were in Table 3. […] Furthermore, the assay remained stable in the autosampler (10 °C) for 4 h and 3 h at room temperature. Relative errors (RE) within ± 15% were considered stable by data comparison.

[2] = parameters: method as in PMID 26482040; settings: 60 mg/m^2 group; grade 5 acute renal failure, grade 3 long-term diarrhea; cited from earlier work
[3] = parameters: method as in PMID 28126962; settings: patients with follicular lymphoma, T-cell lymphoma, diffuse large B-cell lymphoma, phase II; cited from earlier work
[4] = Pharmacokinetic study in rats after single gavage dose, plasma levels by UPLC-MS/MS; type: in vivo, Sprague–Dawley Rats
Protocol: Quantitative analysis was performed using a UPLC-MS/MS system consisting of a Waters Xevo TQ-S triple quadrupole tandem mass spectrometer and a Waters ACQUITY UPLC I-Class system (Milford, MA, USA) used in this experiment. Accurate molecular weight calculations were achieved using an electrospray ionization (ESI) source (Milford, MA, USA) with ultra-high sensitivity. The system was chromatographed on an Acquity BEH C18 column (2.1 mm × 50 mm, 1.7 μm; Milford, MA, USA) at 40 °C with acetonitrile and 0.1% formic acid as mobile phases. Gradient elution was as follows: 0 − 0.5 min (acetonitrile, 10%) and 0.5–1.0 min (acetonitrile, 10–90%), 1.0–1.4 min (acetonitrile, 90%) and 1.4–1.5 min (acetonitrile, 90–10%) at 0.40 mL/min. Finally, the mobile phase was maintained 10% acetonitrile between 1.5 and 2.0 min for equilibration. A 2.0 μL sample was drawn from each vial as the injection volume, and the entire analysis process time was 2.0 min. In UPLC-MS/MS, we used positive ion mode to detect abexinostat and IS with ion transition of m/z 397.93 → 200.19 and 422.01 → 186.11, respectively. 25 eV and 30 V were the collision energy and cone voltage for both.
Plasma protein composition interfered with detection sensitivity. The protein precipitation method in this study was to add acetonitrile to the plasma, and the protein was fully precipitated and then centrifuged. We added 100 μL of the plasma sample along with 10 μL of the IS working solution (concentration of 100 ng/mL) in an Eppendorf (EP) tube. Mixing well and adding acetonitrile at a ratio of 1:3 to precipitate the protein in the EP tube, and centrifuged at 13,000 rpm for 10 min at 4 °C. 100 μL of the supernatant was transferred to an autosampler vial for quantitative analysis by the UPLC-MS/MS system.
Sprague–Dawley Rats Were Provided By The First Affiliated Hospital Of Wenzhou Medical University (Zhejiang, China), And The Animal Study Was Reviewed And Approved By Ethics Committee Of The First Affiliated Hospital of Wenzhou Medical University (WYYY-IACUC-AEC-2023-055). All rats were fasted for 24 h before the experimental animals, and a single gavage dose of 8.00 mg/kg of abexinostat was administered to 6 rats after fasting. At 20 and 40 min, 1, 1.5, 2, 3, 4, 6, 8, 12, 24, and 48 h after gavage, 300 μL of whole blood was collected from the tail vein of the rat and put into heparinized tubes. Then, the blood sample was centrifuged at 8000 rpm for 5 min. 100 μL of plasma was obtained and frozen at − 80 °C for further processing and analysis.
The main parameters of pharmacokinetics were analyzed by Drug and Statistics (DAS, Version 3.0 software, Shanghai University of Traditional Chinese Medicine, China).

[5] = parameters: method as in PMID 27911138; settings: cited from earlier work
[6] = Sprague-Dawley, po, rat plasma, intragastric single dose 8.00 mg/kg, n = 6, Mean ± SD
[7] = patients, most common grade 3 treatment-related adverse events

- stability (in words) ([1]; 3 h at room temperature): stable
- Stability RE (%) ([1]; Autosampler 10 ℃, 4 h, 40 ng/mL): 15.0%
- stability (in words) ([1]; autosampler (10 °C) for 4 h): stable
- Stability RE (%) ([1]; plasma, Room temperature, 3 h, 40 ng/mL): 2.2%
- Stability RE (%) ([1]; plasma, Room temperature, 3 h, 80 ng/mL): 0.2%
- Stability RE (%) ([1]; plasma, Three freeze–thaw (− 80 °C/room temperature), 80 ng/mL): 13.8%
- Stability RE (%) ([1]; plasma, − 80 ℃, 3 weeks, 5.00 ng/mL): 5.4%
- Stability RE (%) ([1]; plasma, − 80 ℃, 3 weeks, 40 ng/mL): 3.3%
- stability of plasma samples (in words) ([1]; three cycles of full freezing (− 80 °C)/thawing (room temperature)): stable
- stability of plasma samples (in words) ([1]; − 80 °C for at least 3 weeks): stable
- AUC(0-inf) [4, 6]: 501 ± 40.1 ng·h/mL
- AUC(0-t) [4, 6]: 461 ± 38.9 ng·h/mL
- Cmax [4, 6]: 28.2 ± 7.67 ng/mL
- half-life [4, 6]: 13.8 ± 2.5 h
- CL/F ([4]; Sprague-Dawley, po, rat plasma, intragastric single dose 8.00 mg/kg, n = 6, Mean ± SD, read-out: CLz/F (converted)): 267 mL/min/kg
- MRT last ([4]; Sprague-Dawley, po, rat plasma, intragastric single dose 8.00 mg/kg, n = 6, Mean ± SD, read-out: MRT0-t): 14.8 ± 0.8 h
- MRT inf ([4]; Sprague-Dawley, po, rat plasma, intragastric single dose 8.00 mg/kg, n = 6, Mean ± SD, read-out: MRT0-∞): 19.1 ± 2.55 h
- Tmax ([4]; Sprague-Dawley, rat, plasma, po, 8 mg/kg, rat plasma, intragastric single dose 8.00 mg/kg, n = 6, Mean ± SD): ~1.39 h
- time at which plasma concentration peaks, estimated from Fig. 3 ([4]; rats, oral administration 8.00 mg/kg, mean concentration–time curve): around 1 h
SMILES: CN(C)Cc1c(C(=O)NCCOc2ccc(C(=O)NO)cc2)oc2ccccc12 [Abexinostat]
- patients with dose-limited toxicities (DLTs) [2]: 2/8
- tumor control (in words) [3]: durable tumor control
- evaluable patients with stable disease ([5]; Phase I, various types of leukemia): 1 out of 12
- grade 3 treatment-related adverse event: neutropenia [5, 7]: 24%
- grade 3 treatment-related adverse event: thrombocytopenia [5, 7]: 29%
